In assay [1] the test system is MMTV-PyMT clusters. Briefly: Epigen immunofluorescence in MMTV-PyMT clusters after junction disruption. Type of assay: cell-based, mouse. The protocol:
FIG. 4C is a quantification of epigen immunogold signal; n=268 gold particles. To determine if microlumenal junctions were permeable, clusters were incubated with cell-impermeable sulfo-NHS-biotin. 1 mM EGTA was used as a positive control to disrupt cell-cell junctions. Biotin leak was quantified by measuring streptavidin-FITC fluorescence signal within clusters. n=3 biological replicates. n=75 clusters per condition. P-values=Mann-Whitney tests (FIG. 4D) Immunofluorescence of epigen in clusters with and without 1 mM EGTA treatment to disrupt cell-cell junctions was measured. […] P-value=Mann-Whitney test. […]
(§1) Phalloidin staining and DAPI were used to define membrane and nuclear areas, respectively. Using the freehand line tool in FIJI software, lines along cell-matrix (outer membrane), cell-cell (intercellular) membranes, and intracellular (cytosolic) areas were drawn and median fluorescence intensity was measured for each channel. […] Then the polygon selection tool was used to measure FITC-streptavidin intensity in the cluster core (excluding the cell-matrix contacts) and intensity was normalized to the area measured. To assess biotin permeability in tumor vs. stroma areas, mean FITC-streptavidin signal was measured in FIJI in equally sized squares in adjacent pure tumor or pure stroma areas. […]

Assay [2] concerns MMTV-PyMT clusters. In words: Sulfo-NHS-biotin permeability of MMTV-PyMT clusters. Type of assay: cell-based, mouse. To be noted: treatment 1 hr prior to biotin. The protocol: FIG. 4C is a quantification of epigen immunogold signal; n=268 gold particles. To determine if microlumenal junctions were permeable, clusters were incubated with cell-impermeable sulfo-NHS-biotin. 1 mM EGTA was used as a positive control to disrupt cell-cell junctions. Biotin leak was quantified by measuring streptavidin-FITC fluorescence signal within clusters. n=3 biological replicates. n=75 clusters per condition. P-values=Mann-Whitney tests (FIG. 4D) Immunofluorescence of epigen in clusters with and without 1 mM EGTA treatment to disrupt cell-cell junctions was measured. […] P-value=Mann-Whitney test.
The accumulation of epigen within microlumina implied a mechanism for preventing ligand diffusion and signal reduction. To characterize the permeability of tumor cell clusters, a technique used to differentially label apical and basal proteins was adapted. Clusters were treated with a cell impermeable biotin (sulfo-NHS-biotin, 0.4 KDa) which labels membrane surface proteins but is excluded from the cytosol. At baseline, biotin was excluded from cell-cell junction membranes within MMTV-PyMT clusters and predominantly labeled the cell-matrix junction membranes (FIG. 4D).
To test the permeability of tumor cell clusters, NHS-biotin was added to a final concentration of 0.8 mM in PBS for 30 minutes at 37° C. […]
as §1

Another assay relates to tumor cell clusters. Briefly: Cluster outgrowth on treatment with recombinant epigen. Format: cell-based.

Consider four molecules from patent US20220257632A1, “MICROLUMENAL TARGETING OF CANCER CELLS” (Fred Hutchinson Cancer Research Center, priority 2019, published 2022).

Turning to `O=C(O)CN(CCOCCOCCN(CC(=O)O)CC(=O)O)CC(=O)O` [calcium chelation, ethylene glycol-bis(β-aminoethyl ether)-N,N,N′,N′-tetraacetic acid], in the assay with MMTV-PyMT clusters [1], the “epigen signal in clusters (immunofluorescence)” value is “marked loss of epigen signal”. In addition, the “biotin leak into clusters” value in the assay on MMTV-PyMT clusters [2] was “biotin was able to leak into intercellular spaces”.

As to `C[C@@H]1Cc2c(Cl)cc(C(=O)N[C@@H](Cc3ccccc3)C(=O)O)c(O)c2C(=O)O1` [ochratoxin A], the “biotin leak into clusters” value in the assay on MMTV-PyMT clusters [2] is on record as “allowed biotin to leak between clustered cells”. Same read-out and setting: then `C/C1=C/C(=O)O[C@@H]2C[C@@H](CC[C@H](C)/C=C\C=C\CC1)O[C@@](O)([C@@H]1CSC(=O)N1)C2` [Latrunculin A], with “allowed biotin to leak between clustered cells”.

B1: recombinant epigen: Recombinant epigen (R&D 1127-EP), growth factor and EGFR ligand (protein, UniProt Q6UW88 23-154, looked up)
Epigen: AAVTVTPPITAQQGNWTVNKTEADNIEGPIALKFSHLCLEDHNSYCINGACAFHHELEKAICRCFTGYTGERCEHLTLTSYAVDSYEKYIAIGIGVGLLLSGFLVIFYCYIRKRCLKLKSPYNVCSGERRPL
As for B1, the outgrowth entry in the assay with tumor cell clusters is “induced outgrowth in a dose-dependent manner”.
